Measurements from patent publication US9321752B2, “Pyrazole derivative” (GREEN TECH CO., LTD., priority 2012, dated 2016).

What was measured:
[1] = Concentration measurement in brain after oral administration; assay type: in vivo; conditions: ICR mice (male, 7 weeks old), single dose of 5 mg/kg, whole brain, LC/MS/MS
Description: Each of the compounds of the present invention shown in Tables 40 and 41 and the compound of Example 2 of JP 2012-229208 A was orally administered to ICR mice (male, 7 weeks old) in a single dose of 5 mg/kg. At 3, 6 and 9 hours after the administration, 1, 3, 6 and 9 hours after the administration, or 1, 3, 6, 9 and 24 hours after the administration, the mice were subjected to perfusion by infusing physiological saline into the heart under inhalational anesthesia with isoflurane, and the whole brain was harvested. Physiological saline was added to the harvested brain in an amount equal to twice the wet weight of the brain and the brain was homogenized. Then, an equal volume of methanol was added thereto, and the mixture was deproteinized. The concentration of each compound in the sample was measured by LC/MS/MS.

[2] = biological target: Recombinant three-repeat microtubule-binding domain (3R-MBD) of tau protein (Homo sapiens, UniProt P10636); test: Determination of tau aggregation inhibitory activity (thioflavin T fluorescence, heparin-induced); assay type: biochemical; conditions: for IC50: 10 μM tau 3R-MBD, 10 μM heparin, 37° C. for 16 hours, thioflavin T; for Emax: 16 h, maximum inhibition at the concentrations used (0.1, 0.3, 1, 3, and 10 μM)
Chain of Recombinant three-repeat microtubule-binding domain (3R-MBD) of tau protein (P10636 2-758 limits assumed): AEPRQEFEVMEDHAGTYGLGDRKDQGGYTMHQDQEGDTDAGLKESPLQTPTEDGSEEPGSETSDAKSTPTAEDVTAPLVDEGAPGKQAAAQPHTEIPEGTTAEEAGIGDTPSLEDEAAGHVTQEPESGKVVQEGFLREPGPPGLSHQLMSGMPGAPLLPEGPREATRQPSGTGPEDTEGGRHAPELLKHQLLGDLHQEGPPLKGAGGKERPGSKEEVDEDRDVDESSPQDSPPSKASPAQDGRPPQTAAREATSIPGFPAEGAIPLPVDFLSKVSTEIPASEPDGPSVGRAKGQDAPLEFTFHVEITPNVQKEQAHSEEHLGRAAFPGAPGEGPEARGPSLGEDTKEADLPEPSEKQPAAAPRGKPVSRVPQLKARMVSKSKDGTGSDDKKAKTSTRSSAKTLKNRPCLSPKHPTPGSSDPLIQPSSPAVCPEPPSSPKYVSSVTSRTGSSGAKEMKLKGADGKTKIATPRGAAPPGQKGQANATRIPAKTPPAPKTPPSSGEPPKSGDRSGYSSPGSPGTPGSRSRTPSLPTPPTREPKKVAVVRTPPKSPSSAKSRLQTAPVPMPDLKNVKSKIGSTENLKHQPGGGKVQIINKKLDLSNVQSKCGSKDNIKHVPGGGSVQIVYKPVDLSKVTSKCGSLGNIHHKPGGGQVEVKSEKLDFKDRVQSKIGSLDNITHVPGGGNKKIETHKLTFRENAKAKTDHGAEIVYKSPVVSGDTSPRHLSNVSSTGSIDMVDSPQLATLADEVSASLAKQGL
Description: Recombinant three-repeat microtubule-binding domain (3R-MBD) of tau protein was expressed in E. coli and was purified and used for the experiment. The purified tau solution was diluted with a 50 mM Tris-HCl buffer (pH 7.6) to a final concentration of 10 μM. The test compounds were prepared using dimethylsulfoxide (hereinafter also referred to as DMSO) at 20-fold of their final concentrations and added to the tau solution so that the DMSO concentration would be 5%. To this solution, heparin was added so that the final concentration would be 10 μM and the plate was left to stand at 37° C. for 16 hours. Thioflavin T was added to the plate so that the concentration would be 10 μM and the fluorescence intensity was measured with a fluorescence plate reader (PerkinElmer, Inc.)(excitation wavelength: 440 nm; fluorescence wavelength: 486 nm). The final concentration of each compound at the time of measurement was set at 0.1, 0.3, 1, 3, and 10 μM. The sample to which only DMSO was added was used as a negative control and its fluorescence intensity was taken as 0% inhibitory activity to determine the 50% inhibitory concentration (IC50) of each compound.

| AUC0-24 h in brain [1] | IC50 [2] | Emax [2] | AUC0-9 h in brain [1] | SMILES |
| --- | --- | --- | --- | --- |
| – | 0.84 µM | – | – | C(=C\c1cc(/C=C/c2ccc3cc[nH]c3c2)[nH]n1)/c1cccc(OCCN2CCOCC2)c1 [Example 53-2, 4-[2-[3-[(E)-2-[5-[(E)-2-(1H-indol-6-yl)vinyl]-1H-pyrazol-3-yl]vinyl]phenoxy]ethyl]morpholine] |
| – | – | 92% | – | CN1CCCN(c2ccc(/C=C/c3cc(/C=C/c4ccc5ccn(C)c5c4)[nH]n3)cc2)CC1 [Example 43-2, 1-methyl-6-[(E)-2-[3-[(E)-2-[4-(4-methyl-1,4-diazepan-1-yl)phenyl]vinyl]-1H-pyrazol-5-yl]vinyl]indole] |
| 1302 ng · hr/g-tissue | – | 91% | – | CN1CCN(c2ccc(/C=C/c3cc(/C=C/c4cccn4C)[nH]n3)cc2)CC1 [Example 27-3, 1-methyl-4-[4-[(E)-2-[5-[(E)-2-(1-methylpyrrol-2-yl)vinyl]-1H-pyrazol-3-yl]vinyl]phenyl]piperazine] |
| – | – | 93% | – | CN1CCCN(c2ccc(/C=C/c3cc(/C=C/c4cccn4C)[nH]n3)cc2)CC1 [Example 28-2, 1-methyl-4-[4-[(E)-2-[5-[(E)-2-(1-methylpyrrol-2-yl)vinyl]-1H-pyrazol-3-yl]vinyl]phenyl]-1,4-diazepane] |
| – | 0.66 µM | 90% | 458 ng · hr/g-tissue | COc1cc(OCc2ccccn2)ccc1/C=C/c1cc(/C=C/c2cccn2C)[nH]n1 [Example 22-2, 2-[[3-methoxy-4-[(E)-2-[5-[(E)-2-(1-methylpyrrol-2-yl)vinyl]-1H-pyrazol-3-yl]vinyl]phenoxy]methyl]pyridine] |
| – | 0.64 µM | 90% | – | Cc1cc(OCc2ccccn2)ccc1/C=C/c1cc(/C=C/c2cccn2C)[nH]n1 [Example 32-5, 2-[[3-methyl-4-[(E)-2-[5-[(E)-2-(1-methylpyrrol-2-yl)vinyl]-1H-pyrazol-3-yl]vinyl]phenoxy]methyl]pyridine] |
| – | 0.59 µM | 92% | – | COc1cc(OCc2ccccn2)ccc1/C=C/c1cc(/C=C/c2ccc(C)n2C)[nH]n1 [Example 23-2, 2-[[4-[(E)-2-[5-[(E)-2-(1,5-dimethylpyrrol-2-yl)vinyl]-1H-pyrazol-3-yl]vinyl]-3-methoxyphenoxy]methyl]pyridine] |
| – | 0.83 µM | – | – | COc1cc(OCc2ccccn2)ccc1/C=C/c1cc(/C=C/c2ccnn2C)[nH]n1 [Example 42-2, 2-[[3-methoxy-4-[(E)-2-[5-[(E)-2-(2-methylpyrazol-3-yl)vinyl]-1H-pyrazol-3-yl]vinyl]phenoxy]methyl]pyridine] |
| – | 0.84 µM | – | – | COc1cc(OCc2ccccn2)ccc1/C=C/c1cc(/C=C/c2cccc(C)n2)[nH]n1 [Example 25-2, 2-[(E)-2-[3-[(E)-2-[2-methoxy-4-(2-pyridylmethoxy)phenyl]vinyl]-1H-pyrazol-5-yl]vinyl]-6-methylpyridine] |
| – | – | – | 869 ng · hr/g-tissue | COc1cc(OCCc2ccccn2)ccc1/C=C/c1cc(/C=C/c2ccc3ccn(C)c3c2)[nH]n1 [Example 44-2, 6-[(E)-2-[3-[(E)-2-[2-methoxy-4-[2-(2-pyridyl)ethoxy]phenyl]vinyl]-1H-pyrazol-5-yl]vinyl]-1-methylindole] |

The next lines start with the molecule.

| SMILES | AUC0-24 h in brain [1] | IC50 [2] | Emax [2] | AUC0-9 h in brain [1] |
| --- | --- | --- | --- | --- |
| COc1cc(OCCN2CCOCC2)ccc1/C=C/c1cc(/C=C/c2ccc3ccn(C)c3c2)[nH]n1 [Example 14-2, 4-[2-[3-methoxy-4-[(E)-2-[5-[(E)-2-(1-methylindol-6-yl)vinyl]-1H-pyrazol-3-yl]vinyl]phenoxy]ethyl]morpholine] | 24639 ng · hr/g-tissue | – | – | – |
| Cn1cccc1/C=C/c1cc(/C=C/c2ccc(OCc3ccccn3)cc2)n[nH]1 [Example 20-3, 2-[[4-[(E)-2-[5-[(E)-2-(1-methylpyrrol-2-yl)vinyl]-1H-pyrazol-3-yl]vinyl]phenoxy]methyl]pyridine] | 5306 ng · hr/g-tissue | 0.55 µM | 89% | – |
| Cn1ccc2ccc(/C=C/c3cc(/C=C/c4ccc(OCc5ccccn5)cc4)n[nH]3)cc21 [Example 17-2, 1-methyl-6-[(E)-2-[3-[(E)-2-[4-(2-pyridylmethoxy)phenyl]vinyl]-1H-pyrazol-5-yl]vinyl]indole] | – | 0.65 µM | – | – |
| CN1CCN(c2ccc(/C=C/c3cc(/C=C/c4ccc5ccn(C)c5c4)[nH]n3)cc2)CC1 [Example 18-2, 1-methyl-6-[(E)-2-[3-[(E)-2-[4-(4-methylpiperazin-1-yl)phenyl]vinyl]-1H-pyrazol-5-yl]vinyl]indole] | 9781 ng · hr/g-tissue | – | – | – |
| COc1cc(OCCN2CCOCC2)ccc1/C=C/c1cc(/C=C/c2cccn2C)[nH]n1 [Example 21-2, 4-[2-[3-methoxy-4-[(E)-2-[5-[(E)-2-(1-methylpyrrol-2-yl)vinyl]-1H-pyrazol-3-yl]vinyl]phenoxy]ethyl]morpholine] | – | – | 89% | – |
| Cn1cccc1/C=C/c1cc(/C=C/c2ccc(OCc3ccccn3)cc2F)n[nH]1 [Example 19-4, 2-[[3-fluoro-4-[(E)-2-[5-[(E)-2-(1-methylpyrrol-2-yl)vinyl]-1H-pyrazol-3-yl]vinyl]phenoxy]methyl]pyridine] | 3499 ng · hr/g-tissue | 0.51 µM | – | – |
| Cn1ccc2ccc(/C=C/c3cc(/C=C/c4ccc(OCc5ccccn5)cc4F)n[nH]3)cc21 [Example 16-2, 6-[(E)-2-[3-[(E)-2-[2-fluoro-4-(2-pyridylmethoxy)phenyl]vinyl]-1H-pyrazol-5-yl]vinyl]-1-methyl indole] | – | 0.6 µM | – | – |
